In ChEMBL document CHEMBL3779859, “Synergistic activity of a short lipidated antimicrobial peptide (lipoAMP) and colistin or tobramycin against Pseudomonas aeruginosa from cystic fibrosis patients” (Medchemcomm, 2016):
Converted amounts (≈) assume the structure as drawn. The source made the active and inactive calls. No cut-off for these calls is given here. Peptide text beside a SMILES is read from it. * marks the point of attachment. Decanoyl = CCCCCCCCCC(=O)*

Experiments:
[1] = tested on: Pseudomonas aeruginosa; assay: Antibacterial activity against Pseudomonas aeruginosa VW1485 clinical isolate after 16 to 20 hrs by microdilution assay; assay type: functional
[2] = tested on: Pseudomonas aeruginosa; assay: Antibacterial activity against Pseudomonas aeruginosa PAO1 clinical isolate assessed as delay in growth at 4 to 32 ug/ml measured every 15 mins by microtiter plate reader method; assay type: functional, organism-based
[3] = Hemolytic activity in erythrocytes (unknown origin) at 250 ug/ml; assay type: ADME, cell-based, Erythrocyte; conditions: read-out: Activity
[4] = tested on: Pseudomonas aeruginosa; assay: Antibacterial activity against Pseudomonas aeruginosa LESB58 clinical isolate assessed as growth inhibition at 32 ug/ml measured every 15 mins by microtiter plate reader method in presence of 1 ug/ml tobramycin; assay type: functional, organism-based
[5] = tested on: Pseudomonas aeruginosa; assay: Antibacterial activity against Pseudomonas aeruginosa PAO1 clinical isolate assessed as inhibition of biofilm formation at 4 ug/ml after 18 to 22 hrs by crystal violet staining-based polystyrene microtiter plate reader method in presence of 0.5 ug/ml tobramycin; assay type: functional, organism-based
[6] = tested on: Pseudomonas aeruginosa; assay: Antibacterial activity against Pseudomonas aeruginosa VW0247 clinical isolate after 16 to 20 hrs by microdilution assay; assay type: functional
[7] = tested on: Pseudomonas aeruginosa; assay: Antibacterial activity against Pseudomonas aeruginosa kl 3.2 clinical isolate after 16 to 20 hrs by microdilution assay; assay type: functional
[8] = tested on: Pseudomonas aeruginosa; assay: Antibacterial activity against Pseudomonas aeruginosa VW1540 clinical isolate after 16 to 20 hrs by microdilution assay; assay type: functional
[9] = tested on: Pseudomonas aeruginosa; assay: Antibacterial activity against Pseudomonas aeruginosa Clone C clinical isolate assessed as delay in growth at 8 to 16 ug/ml measured every 15 mins by microtiter plate reader method; assay type: functional, organism-based
[10] = tested on: Pseudomonas aeruginosa; assay: Antibacterial activity against Pseudomonas aeruginosa KD491 clinical isolate assessed as inhibition of biofilm formation at 2 ug/ml after 18 to 22 hrs by crystal violet staining-based polystyrene microtiter plate reader method; assay type: functional
[11] = tested on: Pseudomonas aeruginosa; assay: Antibacterial activity against Pseudomonas aeruginosa Clone C clinical isolate assessed as inhibition of biofilm formation at 32 ug/ml after 18 to 22 hrs by crystal violet staining-based polystyrene microtiter plate reader method in presence of 2 ug/ml tobramycin; assay type: functional, organism-based
[12] = tested on: Pseudomonas aeruginosa; assay: Antibacterial activity against Pseudomonas aeruginosa PAO1 clinical isolate assessed as inhibition of biofilm formation at 64 ug/ml after 18 to 22 hrs by crystal violet staining-based polystyrene microtiter plate reader method; assay type: functional
[13] = tested on: Pseudomonas aeruginosa; assay: Antibacterial activity against Pseudomonas aeruginosa PAO1 clinical isolate after 18 to 22 hrs by checkerboard method in presence of tobramycin; assay type: functional
[14] = tested on: Pseudomonas aeruginosa; assay: Antibacterial activity against Pseudomonas aeruginosa PAO1 clinical isolate assessed as delay in growth rate in exponential phase of bacterial growth curve at 4 to 32 ug/ml measured every 15 mins by microtiter plate reader method; assay type: functional, organism-based
[15] = tested on: Pseudomonas aeruginosa; assay: Antibacterial activity against Pseudomonas aeruginosa KD491 clinical isolate after 18 to 22 hrs by checkerboard method in presence of tobramycin; assay type: functional
[16] = tested on: Pseudomonas aeruginosa; assay: Antibacterial activity against Pseudomonas aeruginosa LESB58 clinical isolate after 16 to 20 hrs by microdilution assay; assay type: functional
[17] = tested on: Pseudomonas aeruginosa; assay: Antibacterial activity against Pseudomonas aeruginosa Clone C clinical isolate assessed as inhibition of biofilm formation at 8 ug/ml after 24 hrs by propidium iodide staining-based confocal laser microscopy; assay type: functional, organism-based
[18] = tested on: Pseudomonas aeruginosa; assay: Antibacterial activity against Pseudomonas aeruginosa Clone C clinical isolate assessed as delay in growth rate in exponential phase of bacterial growth curve at 8 to 16 ug/ml measured every 15 mins by microtiter plate reader method; assay type: functional, organism-based
[19] = tested on: Pseudomonas aeruginosa; assay: Antibacterial activity against Pseudomonas aeruginosa Clone C clinical isolate assessed as inhibition of biofilm formation at 32 ug/ml after 18 to 22 hrs by crystal violet staining-based polystyrene microtiter plate reader method in absence of colistin; assay type: functional, organism-based
[20] = tested on: Pseudomonas aeruginosa; assay: Antibacterial activity against Pseudomonas aeruginosa KD557 clinical isolate after 16 to 20 hrs by microdilution assay; assay type: functional
[21] = tested on: Pseudomonas aeruginosa; assay: Antibacterial activity against Pseudomonas aeruginosa MIDLANDS clinical isolate after 16 to 20 hrs by microdilution assay; assay type: functional
[22] = tested on: Pseudomonas aeruginosa; assay: Antibacterial activity against Pseudomonas aeruginosa LES431 clinical isolate after 16 to 20 hrs by microdilution assay; assay type: functional
[23] = tested on: Pseudomonas aeruginosa; assay: Antibacterial activity against Pseudomonas aeruginosa VW1471 clinical isolate after 16 to 20 hrs by microdilution assay; assay type: functional
[24] = tested on: Pseudomonas aeruginosa; assay: Antibacterial activity against Pseudomonas aeruginosa LESB58 clinical isolate after 18 to 22 hrs by checkerboard method in presence of colistin; assay type: functional
[25] = tested on: Pseudomonas aeruginosa; assay: Antibacterial activity against Pseudomonas aeruginosa Clone C clinical isolate after 16 to 20 hrs by microdilution assay; assay type: functional
[26] = tested on: Pseudomonas aeruginosa; assay: Antibacterial activity against Pseudomonas aeruginosa KD491 clinical isolate after 16 to 20 hrs by microdilution assay; assay type: functional
[27] = tested on: Pseudomonas aeruginosa; assay: Antibacterial activity against Pseudomonas aeruginosa kl 1.1 clinical isolate after 16 to 20 hrs by microdilution assay; assay type: functional
[28] = tested on: Pseudomonas aeruginosa; assay: Antibacterial activity against Pseudomonas aeruginosa Clone C clinical isolate after 18 to 22 hrs by checkerboard method in presence of colistin; assay type: functional
[29] = tested on: Pseudomonas aeruginosa; assay: Antibacterial activity against Pseudomonas aeruginosa KD491 clinical isolate assessed as growth inhibition at 4 ug/ml measured every 15 mins by microtiter plate reader method in presence of […] ug/ml colistin; assay type: functional, organism-based
[30] = tested on: Pseudomonas aeruginosa; assay: Antibacterial activity against Pseudomonas aeruginosa PAO1 clinical isolate after 18 to 22 hrs by checkerboard method in presence of colistin; assay type: functional
[31] = tested on: Pseudomonas aeruginosa; assay: Antibacterial activity against Pseudomonas aeruginosa KD491 clinical isolate assessed as growth inhibition at 8 ug/ml measured every 15 mins by microtiter plate reader method in presence of 1 ug/ml tobramycin; assay type: functional, organism-based
[32] = tested on: Pseudomonas aeruginosa; assay: Antibacterial activity against Pseudomonas aeruginosa Clone C clinical isolate assessed as inhibition of biofilm formation at 128 ug/ml after 18 to 22 hrs by crystal violet staining-based polystyrene microtiter plate reader method; assay type: functional
[33] = tested on: Pseudomonas aeruginosa; assay: Antibacterial activity against Pseudomonas aeruginosa VW178 clinical isolate after 16 to 20 hrs by microdilution assay; assay type: functional
[34] = tested on: Pseudomonas aeruginosa; assay: Antibacterial activity against Pseudomonas aeruginosa Clone C clinical isolate assessed as inhibition of biofilm formation at 32 ug/ml after 18 to 22 hrs by crystal violet staining-based polystyrene microtiter plate reader method in presence of 2 ug/ml colistin; assay type: functional
[35] = tested on: Pseudomonas aeruginosa; assay: Antibacterial activity against Pseudomonas aeruginosa PAO1 clinical isolate assessed as inhibition of biofilm formation at 32 ug/ml after 18 to 22 hrs by crystal violet staining-based polystyrene microtiter plate reader method in absence of colistin; assay type: functional, organism-based
[36] = tested on: Pseudomonas aeruginosa; assay: Antibacterial activity against Pseudomonas aeruginosa LESB58 clinical isolate assessed as delay in growth rate in exponential phase of bacterial growth curve at 4 to 32 ug/ml measured every 15 mins by microtiter plate reader method; assay type: functional, organism-based
[37] = tested on: Pseudomonas aeruginosa; assay: Antibacterial activity against Pseudomonas aeruginosa Clone C clinical isolate assessed as growth inhibition at 8 ug/ml measured every 15 mins by microtiter plate reader method in presence of […] ug/ml colistin; assay type: functional, organism-based
[38] = tested on: Pseudomonas aeruginosa; assay: Antibacterial activity against Pseudomonas aeruginosa LESB58 clinical isolate assessed as growth inhibition at 4 ug/ml measured every 15 mins by microtiter plate reader method in presence of 2 ug/ml colistin; assay type: functional, organism-based
[39] = tested on: Pseudomonas aeruginosa; assay: Antibacterial activity against Pseudomonas aeruginosa PAO1 clinical isolate assessed as inhibition of biofilm formation at 32 ug/ml after 18 to 22 hrs by crystal violet staining-based polystyrene microtiter plate reader method in presence of 2 ug/ml tobramycin; assay type: functional, organism-based

With `CCCCCCCCCC(=O)NCCCC[C@H](NC(=O)[C@H](Cc1c[nH]c2ccccc12)NC(=O)[C@H](CCCNC(=N)N)NC(=O)[C@H](Cc1c[nH]c2ccccc12)NC(=O)[C@H](CCCNC(=N)N)NC(=O)[C@H](Cc1c[nH]c2ccccc12)NC(=O)[C@@H](N)CCCNC(=N)N)C(=O)O` (H-RWRWRWK(Decanoyl)-OH) the MIC [1] was 256 µg/mL (≈ 193 µM), the Activity [2] was “Active” and the hemolysis at 250 ug/ml [3] was 50%. The “growth inhibition (GI)” value [4] was “Active”, the inhibition [5] was “inactive” and the MIC [6] was 64 µg/mL (≈ 48.2 µM). The MIC [7] was 128 µg/mL (≈ 96.4 µM), the MIC [8] was 64 µg/mL (≈ 48.2 µM) and the Activity [9] was “Active”. The inhibition at 2 µg/mL [10] was 45%, the inhibition [11] was “inactive” and the inhibition at 64 µg/mL [12] was 81%. The “fractional inhibitory concentration index (FICI)” value [13] was 0.75, the Activity [14] was “Active” and the “fractional inhibitory concentration index (FICI)” value [15] was 0.375. The MIC [16] was 128 µg/mL (≈ 96.4 µM), the inhibition [17] was “inactive” and the Activity [18] was “Active”. The inhibition [19] was “inactive”, the MIC [20] was 256 µg/mL (≈ 193 µM) and the MIC [21] was 64 µg/mL (≈ 48.2 µM). For the same compound, the MIC [22] was 32 µg/mL (≈ 24.1 µM), the MIC [23] was 64 µg/mL (≈ 48.2 µM) and the “fractional inhibitory concentration index (FICI)” value [24] was 0.375. For the same compound, the MIC [25] was 128 µg/mL (≈ 96.4 µM), the MIC [26] was 16 µg/mL (≈ 12.1 µM) and the MIC [27] was 128 µg/mL (≈ 96.4 µM). For the same compound, the “fractional inhibitory concentration index (FICI)” value [28] was 0.5, the “growth inhibition (GI)” value [29] was “Active” and the “fractional inhibitory concentration index (FICI)” value [30] was 0.3125. The “growth inhibition (GI)” value [31] was “Active”, the inhibition at 128 µg/mL [32] was 82% and the MIC [33] was 32 µg/mL (≈ 24.1 µM). The “inhibition (INH)” value [34] was 70%, the inhibition [35] was “inactive” and the Activity [36] was “Active”. The “growth inhibition (GI)” value [37] was “Active”, the “growth inhibition (GI)” value [38] was “Active” and the inhibition [39] was “inactive”.
